Results from patent US4279915A, “Method of treatment using new leurosine derivatives” (priority 1973, dated 1981).

What was measured:
[1] = acute toxicity in Swiss mice; assay type: in vivo, mouse; conditions: mouse, in vivo, Swiss mice
Source text: (§1) ACUTE TOXICITY IN SWISS MICE
(§2) Table III lists the comparative toxicological data concerning Vincristine, Vinblastine and F-leurosine. The new analogue is approximately 7 times less toxic than Vincristine and 4 times less toxic than Vinblastine in acute rodent experiments.

[2] = test system: Swiss mice; experiment: acute toxicity in Swiss mice; assay type: in vivo, mouse
Source text: as §1, §2

[3] = test system: Ehrlich ascites carcinoma; experiment: antitumor effect on Ehrlich ascites carcinoma; assay type: in vivo, mice
Source text: This compound provides complete recovery or a 300 percent extension of life span in 50 to 70 percent of the cases, in tests on mice inoculated with Ehrlich ascites carcinoma or NK/Ly lymphoma.
(§3) EFFECT OF F-LEUROSINE ON ASCITIC TUMORS

[4] = test system: L 1210 leukemia; experiment: effect on L 1210 i.p. leukemia; assay type: in vivo, BDF1 mice
Source text: (§4) The treatment extends the life span of animals suffering from L-1210 lymphoid leukemia, s37 ascites sarcoma or Yoshida ascites sarcoma by about 150 to 250 percent.
L 1210 I.P. LEUKEMIA ON BDF1 MICE

[5] = test system: S 37 ascites sarcoma; experiment: antitumor effect on S 37 ascites sarcoma; assay type: in vivo
Source text: as §4, §3

[6] = test system: Novikoff; experiment: antitumor effect on Novikoff ascitic tumor; assay type: in vivo
Source text: |EFFECT OF F-LEUROSINE ON ASCITIC TUMORS

[7] = test system: Harding Passey melanoma; experiment: growth inhibition of Harding Passey melanoma; assay type: in vivo
[8] = test system: VX-2 rabbit epitheloma; experiment: growth inhibition of VX-2 rabbit epitheloma; assay type: in vivo
[9] = test system: leukaemias; experiment: effect of F-leurosine on leukaemias in patients (Table I); assay type: in vivo, human; conditions: for haematological effect: schedule C
[10] = test system: lymphomas; experiment: effect of F-leurosine on lymphomas in patients (Table II); assay type: in vivo, human
Source text: Both of Hodgkin patients belonged to the poor risk category.
EFFECT OF F-LEUROSINE ON LYMPHOMAS

[11] = test system: leukemia; experiment: Phase I trial, escalation and evaluation period; assay type: in vivo, human; conditions: up to 0.05 mg/kg/day i.v. six consecutive days, escalation period
Procedure: Fourteen patients were treated. The patient selection met the following criteria: (a) all types of leukemia, (b) all patients previously treated without success, (e) no X-ray or chemotherapy was administered four weeks prior to therapy, (d) at least eight weeks follow-up. In the escalation period 0.01 mg/kg/day i.v. was given five consecutive days as initial dose.
DOSAGE OF F-LEUROSINE IN PHASE I TRIAL
In addition, eight patients were added to the group treated on the basis of this schedule.

[12] = test system: leukemias and haemoblastoses; experiment: therapeutic results in leukemias and haemoblastoses (Table VII); assay type: in vivo, human
Procedure: In addition, eight patients were added to the group treated on the basis of this schedule. Therapeutic results obtained by F-Leurosine in leukemias and haemoblastoses are listed in Table VII. |Therapeutic Results Obtained by F-Leurosine Treatment

[13] = 4 × 0.6 mg/kg i.p. each other day
[14] = 8 × 2.5 mg/kg i.p. 48 hr interval
[15] = 8 × 2.5 mg/kg i.p. 72 hr interval
[16] = 8 × 5.0 mg/kg i.p. 48 hr interval
[17] = 8 × 5.0 mg/kg i.p. 72 hr interval
[18] = 8 × 5.0 mg/kg i.p. 96 hr interval
[19] = 8 × 7.5 mg/kg i.p. 72 hr interval
[20] = 8 × 7.5 mg/kg i.p. 96 hr interval
[21] = 8 × 10.0 mg/kg i.p. 48 hr interval
[22] = 8 × 10.0 mg/kg i.p. 72 hr interval
[23] = 8 × 10.0 mg/kg i.p. 96 hr interval
[24] = 4 × 3.0 mg/kg i.p. each other day

Compound: CCC12CN3CCc4c([nH]c5ccccc45)[C@@](C(=O)OC)(c4cc5c(cc4OC)N(C=O)[C@H]4[C@@](O)(C(=O)OC)[C@H](OC(C)=O)[C@]6(CC)C=CCN7CC[C@]54[C@@H]76)C[C@@H](C3)C1O2 (stereo partly drawn) [N-formyl-leurosine]
- LD50 ([1]; ip, 1 x i.p.): 28.8 mg/kg
- LD50 ([1]; iv, 1 x i.v.): 32.5 mg/kg
- times less toxic than Vinblastine ([2]; acute rodent experiments): ~4 times
- times less toxic than Vincristine ([2]; acute rodent experiments): approximately 7 times
- signs of neurotoxicity ([2]; even subluthal doses, experimental animals): did not show any signs of neurotoxicity
- toxicity relative to vinblastine ([2]; i.p., on mice (text b8)): about five times less toxic than vinblastine
- toxicity relative to vincristine ([2]; i.p., on mice (text b8)): about ten times less toxic than vincristine
- extension of life span [3]: 300%
- Survival [3, 13]: 288
- Tumor free [3, 13]: 7/10
- Survival ([3]; 7 × 3.0 mg/kg i.p. daily): 244
- Tumor free ([3]; 7 × 3.0 mg/kg i.p. daily): 3/10
- Survival ([3]; 24 × 0.15 mg/kg i.p. daily): 118
- Tumor free ([3]; 24 × 0.15 mg/kg i.p. daily): 3/10
- Mean survival ([4]; 8 × 1.25 mg/kg i.p. daily): 27.7 days
- Survival ([4]; 8 × 1.25 mg/kg i.p. daily): 131
- Mean survival [4, 14]: 22.4 days
- Survival [4, 14]: 137
- Mean survival [4, 15]: 12.0 days
- Survival [4, 15]: 48
- Mean survival ([4]; 8 × 2.5 mg/kg i.p. daily): 25.0 days
- Survival ([4]; 8 × 2.5 mg/kg i.p. daily): 127
- Mean survival [4, 16]: 24.0 days
- Survival [4, 16]: 126
- Mean survival [4, 17]: 22.1 days
- Survival [4, 17]: 123
- Mean survival [4, 18]: 10.8 days
- Survival [4, 18]: 35
- Mean survival ([4]; 8 × 5.0 mg/kg i.p. daily): 23.0 days
- Survival ([4]; 8 × 5.0 mg/kg i.p. daily): 109
- Mean survival [4, 19]: 20.2 days
- Survival [4, 19]: 117
- Mean survival [4, 20]: 19.2 days
- Survival [4, 20]: 95
- Mean survival ([4]; 8 × 7.5 mg/kg i.p. daily): 19.5 days
- toxicity mark in Survival column ([4]; 8 × 7.5 mg/kg i.p. daily): tox
- Survival ([4]; 8 × 7.5 mg/kg i.p. daily, tox): 56
- Mean survival [4, 21]: 21.7 days
- toxicity mark in Survival column [4, 21]: tox
- Survival ([4]; 8 × 10.0 mg/kg i.p. 48 hr interval, tox): 60
- Mean survival [4, 22]: 22.3 days
- Survival [4, 22]: 145
- Mean survival [4, 23]: 23.6 days
- Survival [4, 23]: 136
- potency of small daily doses vs high doses twice weekly ([4]; BDF1 mice): equally potent
- sensitivity of L-1210 leukemia to the treatment ([4]; BDF1 mice): sensitive to the treatment
- extension of life span ([4]; L-1210 lymphoid leukemia, about): 150-250%
- Tumor free ([5]; 4 × 2.5 mg/kg i.p. daily): 4/6
- Tumor inhibition ([5]; 4 × 2.5 mg/kg i.p. daily): 100
- Survival ([5]; 8 × 1.0 mg/kg i.p. daily): 268
- Tumor free ([5]; 8 × 1.0 mg/kg i.p. daily): 1/6
- extension of life span ([5]; s37 ascites sarcoma, about): 150-250%
- Survival [6, 24]: 196
- Tumor free [6, 24]: 1/6
- Survival ([6]; 6 × 2.0 mg/kg i.p. daily): 166
- Tumor free ([6]; 6 × 2.0 mg/kg i.p. daily): 0/6
- growth inhibition [7]: remarkable growth inhibition
- growth inhibition [8]: remarkable growth inhibition
- clinical improvement parallel with the haematological one ([9]; ALL and AML patients): observed only in the case of the ALL patient
- duration of complete haematological remission ([9]; ALL patient): 2 months
- outcome after treatment ([9]; AML patient): died one month after the end of the treatment
- time to relapse after finishing treatment ([9]; AML patient, relapse untreatable because of serious thrombopenia and bleeding): 14 days
- splenomegaly ([9]; CLL, first case): splenomegaly diminished
- enlargement of pathological lymph nodes ([9]; CLL, second case (T. B.)): became less pronounced
- lymph nodes and spleen volume ([9]; CLL, third case): both the lymph nodes and the spleen increased in volume
- clinical improvement ([9]; chronic lymphocytic leukaemia): some clinical improvement was achieved in all the 3 CLL patients
- haematological remission ([9]; chronic lymphocytic leukaemia): no haematological remission could be induced
- complete haematological remission ([9]; four cases of acute leukaemia, one ALL, one AML): Complete haematological remission was achieved in two cases
- haematological effect ([9]; patient seven, AMoL): IR>50%
- haematological effect ([9]; patient six, AUL): IR>50%
- X-ray picture of the chest, atelectasia in lower region of right lung ([10]; Hodgkin patient four, before vs after treatment): undoubted improvement
- response ([10]; lymphosarcoma patient eight, poor risk): non-responding
- palpable lymph nodes ([10]; lymphosarcoma patient five, after second course): all but one of the palpable lymph nodes disappeared
- Westergren value after treatment ([10]; lymphosarcoma patient five, 75 mm/hour before the treatment): 12 mm/h
- remission ([10]; lymphosarcoma patient three): moderate remission
- change in mediastinal pathologic lymph nodes' size and intensity ([10]; lymphosarcoma patient two): not spectacular, but definite
- palpable lymph nodes ([10]; lymphosarcoma patient two): The majority of their palpable lymph nodes disappeared
- effect ([10]; patient five, course I, Lysc., schedule A): IR>50%
- effect ([10]; patient five, course II, Lysc., schedule B): IR<50%
- effect ([10]; patient nine, Hodgkin SC., schedule C): IR<50%
- effect ([10]; patient one, Rsc., schedule C): IR<50%
- effect ([10]; patient three, Lysc., schedule A): IR<50%
- effect ([10]; patient two, Lysc., schedule C): IR>50%
- sensitivity to treatment ([10]; poor risk Hodgkin patient four): proved to be sensitive
- improvement after therapy ([10]; two reticulosarcoma patients, some lymph nodes diminished, softer, more mobile): one showed a moderate improvement after therapy
- antitumor activity [11]: striking antitumor activity
- signs of toxicity [11]: without signs of toxicity
- Complete remission ([12]; ALL, 1 patient): 1 patients
- Complete remission ([12]; AML, 1 patient): 1 patients
- Partial remission ([12]; AMoL, 1 patient): 1 patients
- Partial remission ([12]; AUL, 1 patient): 1 patients
- Partial remission ([12]; CLL, 3 patients): 3 patients
- No response ([12]; Hodgkin's disease, 2 patients): 2 patients
- No response ([12]; LSC, 5 patients): 1 patients
- Partial remission ([12]; LSC, 5 patients): 4 patients
- No response ([12]; Multiple myelomo, 6 patients): 2 patients
- Partial remission ([12]; Multiple myelomo, 6 patients): 4 patients
- No response ([12]; RSC, 2 patients): 1 patients
- Partial remission ([12]; RSC, 2 patients): 1 patients
- Complete remission ([12]; Total, 22 patients): 2 patients
- No response ([12]; Total, 22 patients): 6 patients
- Partial remission ([12]; Total, 22 patients): 14 patients
